Data reported in patent US20110212235A1, “ANTIMICROBIAL SALT SOLUTIONS FOR CHEESE PROCESSING APPLICATIONS” (priority 2006, published 2011).

Assays:
Assay type in all cases: cell-based
[1] = test system: black mold; test: “Mold” procedure, black mold
Experimental: (§1) In the present example, cultures of various microorganisms native to actual process brines used in cheese manufacture were obtained from a cheese plant. The cultures of yeast, mold, and coliforms were grown and used to test the efficacy of various antimicrobial additives in blue cheese brines. Organism cultures included four different types of yeast (three distinct while yeast cultures and a pink yeast), a black mold culture, a coliform culture, a culture of mixed green mold and yeast that were not separated, and a culture that was identified by the cheese plant as heterofermentative lactic acid bacteria, although no actual identification of the strain was carried out.
(§2) “Mold” Procedure: • 1. From refrigerated stock mold cultures, take 1 ml from black mold dilution bottle added to 99 ml of cold Butterfield's Phosphate Buffered Water (PBW) to obtain 10^5 cfu/ml. • 2. Take 1 ml from green mold/white yeast mixture dilution bottle added to 99 ml of cold Butterfield's Phosphate Buffered Water (PBW) to obtain 10^6 cfu/ml. • 3. Plate serial dilutions of the cultures to get the starting count of the inoculum on Dichloran-Rose Bengal-Chloramphenicol Agar (DRBC). • 4. Add 1 ml of the diluted mold culture to 100 ml of cold test solution (do separately for each of the two mold cultures). • 5. Determine the population at time 0 and 4 hours. Spread plate serial dilutions to DRBC agar. • 6. Incubate the test solutions at 10° C.+/−2° C. for the duration of the experiment. • 7. Incubate the plates at 20° C.+/−2° C. for 5 days+/−2 hours. • 8. Count representative colonies and multiply by the dilution factor. Note: For black mold, each test solution should contain ˜10^3 cfu/ml. For green mold/white yeast mixture, each test solution should contain ˜10^4 cfu/ml.

[2] = test system: yeast cocktail (Raised, Rough and Flat white yeast and a pink yeast); test: “Yeast” procedure, yeast cocktail
Excerpt: as §1, with “The cultures of yeast, mold, and coliforms were grown and used to test the efficacy of various antimicrobial additives in blue cheese brines.” left out
(§3) “Yeast” Procedure: • 1. Inoculate a separate tube containing 10 ml of Brain Heart Infusion (BHI) broth for each wild type (Raised, Rough and Flat white yeast along with a single pink yeast). Incubate for 5 days at 26° C.+/−2° C. • 2. Assume growth to be 10^7 cfu/ml. Since 4 cultures are being used, combine 2.75 ml of each culture added to 99 ml of cold Butterfield's Phosphate Buffered Water (PBW) to obtain 10^6 cfu/ml of yeast cocktail. • 3. Plate serial dilutions of the culture to get the starting count of the inoculum on Dichloran-Rose Bengal-Chloramphenicol Agar (DRBC). • 4. Add 1 ml of the diluted cocktail to 100 ml of cold test solution. • 5. Determine the population at time 0 and 4 hours. Spread plate serial dilutions to DRBC agar. • 6. Incubate the test solutions at 10° C.+/−2° C. for the duration of the experiment. • 7. Incubate the plates at 20° C.+/−2° C. for 5 days+/−2 hours. • 8. Count representative colonies and multiply by the dilution factor. Note: Each test solution should contain ˜10^4 cfu/ml.
(§4) The brines were treated with different concentrations of octanoic acid and then challenged with a yeast cocktail (which included the pink and 3 different white mold types), the green mold+yeast combination, and coliforms.

[3] = test system: wild type coliforms from cheese plant brine; test: Coliforms procedure in cheese brine or buffered solution
[4] = test system: L. monocytogenes biofilm; test: L. mono biofilm challenge in hot dog plant chill brine at −20° C.; conditions: for L. mono biofilm count, 1 hour: 1 hour at −20° C.; for L. mono biofilm count, 1 hour / L. mono biofilm count, 24 hours: hot dog plant chill brine with cooked turkey added; for L. mono biofilm count, 24 hours: 24 hours at −20° C.
Experimental: Biofilms can provide a haven for pathogens, increasing their resistance to antimicrobial treatments, and thereby providing another possible source of food contamination. Tests were run to see if some embodiments were effective against a L. monocytogenes biofilm. Challenge tests were run according to the procedure below. Test solutions were prepared from a sample of hot dog plant chill brine which was treated with various levels of the alcohol ethoxylate surfactant. Cooked turkey was added to the test solution before inoculation to simulate a worst case “dirty” brine with a high degree of organic load.
1. Inoculate five cultures, L. monocytogenes H2446 (CDC Global Standard), Scott A-serotype 4b, 12243-serotype 1/2a, WP1 and WP4 in 10 ml Brain Heart Infusion broth (BHI). Incubate the tubes for 7 days at 10° C.+/−2° C. 2. Aseptically dispense 50 ml of sterile Tryptic Soy Broth (TSB)+0.6% Yeast Extract (YE) into sterile disposable 50 ml conical shaped plastic tubes. Make enough tubes for each time point. 3. Aseptically drop one coupon into the broth in each tube. 4. Make a cocktail of the five cultures and add 0.1 ml into each tube. Incubate the tubes for 7 days at 7° C.+/−2° C. 5. Dispense 40 ml of antimicrobial salt solutions containing sterile phosphate buffer into 50 ml plastic tubes. 6. After biofilm has grown, aseptically remove coupon and rinse each side for 5 seconds with sterile distilled water to remove unattached cells. 7. Aseptically drop each rinsed coupon into the antimicrobial salt solution tube and incubate for appropriate time (1 hour and 24 hour) at −20° C.+/−2° C. 8. Aseptically add 45 ml of sterile phosphate buffer (PBW) to 50 ml conical shaped plastic tubes along with 10 sterile glass beads. 9. After incubate time is complete, aseptically move the coupon from the antimicrobial salt solution to the sterile (PBW) solution containing beads. 10. Shake the tube with glass beads for about 2 minutes to remove attached cells. 11. Plate the cells in the PBW solution on TSA+0.6% YE using appropriate dilutions and incubate at 20° C. for 72+/−2 hours. 12. Plate the antimicrobial salt solution on TSA+0.6% YE using appropriate *dilutions and incubate 20° C. for 72+/−2 hours. *Please make note: The first dilution should take place in 9 ml DE Neutralizing Buffer. After incubation, count typical colonies and record results to cfu/g.

[5] = test system: wild type coliforms from cheese plant brine; test: Coliforms procedure in cheese brine or buffered solution; remark: listed apart in the source
Experimental: as §1
Coliforms Procedure: • 1. Inoculate a separate tube containing 10 ml of Brain Heart Infusion (BHI) broth for each wild type coliforms 1 and 2. Incubate for 24+/−2 hours at 35° C.+/−2° C. • 2. Assume growth to be 10^9 cfu/ml. Since two cultures are being used, combine 5.5 ml of each culture added to 99 ml of cold Butterfield's Phosphate Buffered Water (PBW) to obtain 10^8 cfu/ml. • 3. Plate serial ten-fold dilutions of the culture to get the starting count of the inoculum on Violet Red Bile Agar (VRBA). • 4. Add 1 ml of the diluted cocktail to 100 ml of cold test solution. • 5. Determine the population at time 0 and 4 hours by plating serial dilutions to VRBA spread plates. • 6. Incubate the test solutions at 10° C.+/−2° C. for the duration of the experiment. • 7. Incubate the plates at 20° C.+/−2° C. for 72+/−2 hours. • 8. Count representative colonies and multiply by the dilution factor. Note: Each test solution should contain ˜10^8 cfu/ml.
as §4

[6] = test system: L. monocytogenes; test: L. monocytogenes cocktail challenge of surfactant/salt solutions at 2° C.; conditions: after 4 hours in solution at 2° C.; Table 2, different salts and salt concentrations
Experimental: Tests were generally run according to the following procedure:
(§5) 1. Inoculate a separate tube containing approximately 10 ml of Brain Heart infusion (BHI) broth with the following L. monocytogenes strains: H2446 (CDC Global Standard), Scott A (serotype 4b), 12243 (serotype 1/2a), and two strains isolated from the environment of a cooked meat and poultry facility, designated WP1, and WP4. Incubate the tubes at least 5 days at 7-10° C.+/−2° C. 2. Assume the growth to be 10^9 cfu/ml. Serially dilute each culture in cold (˜7° C.). Butterfield's Phosphate Buffered Water (PBW) to 10^8 cfu/ml (1:10). Since five cultures of L. monocytogenes are being used as a cocktail, begin the dilution series using 2.20 ml of each culture added to 99 ml of PBW. 3. Plate (−6, −7, −8) the diluted culture to get the starting count of the inoculum on Modified Oxford medium (MOX) using a thin agar overlay (TAL) technique (overlay with Trypticase Soy Agar [TSA]) to revive injured cells. 4. Add 1 ml of the diluted cocktail to 100 ml of cold test solution. 5. Mix the solutions well. 6. Determine the L. monocytogenes population at time 0 and 4 hours. Plate −1 (0.1 ml on 1 plate), −2, −3, and −4 dilutions using spread plates on MOX TAL with TSA. 7. Incubate the test solutions at test temperature for the duration of the experiment. 8. Incubate the MOX TAL with TSA plates at 20° C.+/−2° C. for 72+/−3 hours. Count representative colonies, which are black, and multiply by the dilution factor.

[7] = test system: Uncharacterized microorganisms cultured from raw ground beef; test: Total plate count challenge of 24% NaCl brine with ground beef organisms; conditions: after 4 hours in 24% NaCl brine at −5° C.
Experimental: Tests were run to determine the effectiveness of formulas against organisms other than L. monocytogenes. […] The test solutions were inoculated with the ground beef organism culture and incubated for 4 hours at −5° C. before plating.

[8] = test system: green mold/white yeast mixture; test: “Mold” procedure, green mold/white yeast mixture; conditions: 500 ppm in mozzarella brine
Experimental: as §1, §2
Screening tests identified octanoic acid as a promising antimicrobial additive for salt brines. Table 16 gives results of a challenge test run on actual blue cheese and mozzarella process brine samples sent from a cheese plant. The brines were treated with different concentrations of octanoic acid and then challenged with a yeast cocktail (which included the pink and 3 different white mold types), the green mold+yeast combination, and coliforms. […] The plate counts listed parenthetically as (est) were too numerous to count and were estimated.

[9] = test system: White Yeast; test: Yeast challenge, white yeast; conditions: after 4 hours in mozzarella cheese brine; Table 19
Experimental: as §3
(§6) In order to determine if the effect of the additive was repeatable, more challenge tests were run on samples of process brine. […] In this test the solutions were challenged with two distinct yeast (a white and a pink) types and coliforms from the samples sent by the cheese plant.

[10] = test system: Pink Yeast; test: Yeast challenge, pink yeast; conditions: after 4 hours in mozzarella cheese brine; Table 19
Experimental: as §3, §6

[11] = test system: L. monocytogenes; test: L. monocytogenes challenge in beef plant chill brine at 4° C.; conditions: after 4 hours at 4° C.; surfactant added to beef plant brine, approximately 17% sodium chloride
Experimental: as §5
Several tests were carried out to determine the effectiveness of embodiments according to the invention in meat processing chill brines. In one experiment, brine was taken at the end of a production week from a brine chiller used in a ready to eat, cooked beef production line. The sodium chloride concentration in this brine was approximately 17%. Samples of the brine with and without added surfactant were inoculated with a cocktail of L. monocytogenes as per the procedure described above, incubated at 4° C. for four hours, and then plated to determine L. monocytogenes survival.

[12] = after 4 hours in buffer of 375 ppm acetic acid and 525 ppm sodium acetate, pH 4.74
[13] = after 4 hours in blue cheese brine taken before or after brining cheese wheels, Table 22
[14] = about 250 ppm in blue cheese brine

Molecule: [Cl-].[Na+] [24% NaCl, sodium chloride, reference compound]
- Black Mold count [1, 12]: 660 cfu/mL
- Yeast Cocktail count [2, 12]: 6,600 cfu/mL
- Coliform count [3, 12]: 11,000 cfu/mL

Molecule: alcohol ethoxylate [25 ppm alcohol ethoxylate]
- L. mono biofilm count, 1 hour [4]: 3500 cfu/coupon
- L. mono biofilm count, 24 hours [4]: 250 cfu/coupon

Molecule: CCCCCCCC(=O)O [250 ppm octanoic acid (after cheese), octanoic acid]
- Coliform count [5, 13]: <10 cfu/mL
- Black Mold count [1, 13]: <10 cfu/mL
- Yeast Cocktail count [2, 13]: <10 cfu/mL

Molecule: CCCCCCCC(=O)[O-].[Na+] [140 ppm Na Octanoate, sodium octanoate]
- Black Mold count [1, 12]: 630 cfu/mL
- Yeast Cocktail count [2, 12]: 10,000 cfu/mL
- Coliform count [3, 12]: 7,700 cfu/mL

Molecule: CCCCCCCC(=O)[O-].[Na+] [35 ppm Na Octanoate, sodium octanoate]
- Black Mold count [1, 12]: 710 cfu/mL
- Yeast Cocktail count [2, 12]: 9,000 cfu/mL
- Coliform count [3, 12]: 7,000 cfu/mL

Molecule: alcohol ethoxylate [50 ppm alcohol ethoxylate]
- L. mono count [6]: 1.9 × 10^5 cfu/mL
- L. mono biofilm count, 1 hour [4]: 10-100 cfu/coupon
- L. mono biofilm count, 24 hours [4]: <10 cfu/coupon
- log kill of the biofilm within 1 hour ([4]; very “dirty” brine, −20° C., 1 hour): > 2 log
- log kill of the biofilm after 24 hours ([4]; very “dirty” brine, −20° C., 24 hours): > 3 log

Molecule: CCCCCCCC(=O)[O-].[Na+] [70 ppm Na Octanoate, sodium octanoate]
- Black Mold count [1, 12]: 510 cfu/mL
- Yeast Cocktail count [2, 12]: 7,500 cfu/mL
- Coliform count [3, 12]: 12,000 cfu/mL

Molecule: sodium linear alkylbenzene sulfonate
- Total plate count [7]: <10 cfu/mL

Molecule: alcohol ethoxylate [15 ppm alcohol ethoxylate]
- L. mono biofilm count, 1 hour [4]: 5,000 cfu/coupon
- L. mono biofilm count, 24 hours [4]: 5600 cfu/coupon

Molecule: decyl alcohol ethoxylate, POE-6 [800 ppm decyl alcohol ethoxylate, POE-6]
- Total plate count [7]: 10 cfu/mL

Molecule: CCCCCCCC(=O)O [octanoic acid, octanoic (caprylic) acid]
- log kill of coliform [5, 14]: ~3 log
- log kill of mold [1, 14]: ~3 log
- log reduction in the yeast+mold count [8]: 2 log
- log kill of one of the yeast cultures ([2]; 250 ppm in mozzarella brine (so in the source)): > 3.76 log
- log kill of yeast [2, 14]: ~3 log
- log reduction in the coliform count ([3]; 500 ppm in mozzarella brine): 2 log
- log kill of coliforms ([3]; mozzarella brine, Table 19): ~2 log

Molecule: sodium salt of sulfonated oleic acid
- Total plate count [7]: 5.2 × 10^3 cfu/mL

Molecule: CCCCCCCC(=O)O [1250 ppm octanoic acid, octanoic acid]
- White Yeast count [9]: <10 cfu/mL
- Pink Yeast count [10]: <10 cfu/mL
- Coliform count ([3]; after 4 hours in mozzarella cheese brine, Table 19): 1.2 × 10^3 cfu/mL

Molecule: nonylphenolethoxylate [800 ppm nonylphenolethoxylate]
- Total plate count [7]: 40 cfu/mL

Molecule: sodium olefin sulfonate [50 ppm sodium olefin sulfonate]
- L. mono count [6]: 1.8 × 10^5 cfu/mL
- L. mono count [11]: 10 cfu/mL
